Measured values as given in patent publication US20140005070A1, “MARKERS ASSOCIATED WITH CYCLIN-DEPENDENT KINASE INHIBITORS” (Novartis AG, priority 2011, published 2014).

Legend:
[1] = test system: PD markers MEPCE, MCL, MYC, HEXIM, LARP7 and WHSC2; experiment: Affymetrix U133-Plus-2 microarray gene expression profiling of CDKI treated cell lines; assay type: cell-based; details: A375 cells, FIG. 2
Experimental: Five cell lines were analyzed: NCI-H929, a multiple myeloma cell line (ATCC Cat. # CRL-9068); NCI-H441, a lung papillary adenocarcinoma cell line (ATCC Cat. # HTB-174); A375, a melanoma cell line (ATCC Cat. # CRL-1619); A2058, a melanoma cell line (ATCC Cat. #CRL-1147) and U-87-MG, a glioblastoma cell line (ATCC Cat. #HTB-14). Cell lines were grown in the medium recommended by ATCC and treated as follows:
NCI-H441 and A375: 0 timepoint: Untreated, harvested when compound is added to the other plates.
2 hours: DMSO, 200 nM CKDI(8) or 500 nM CKDI(8) or 500 nM CKDI(7) (3 plates each, total 12 plates).
8 hours: DMSO, 200 nM CKDI(8) or 500 nM CKDI (8) or 500 nM CKDI(7) (3 plates each, total 12 plates).
16 hours: DMSO, 200 nM CKDI(8) or 500 nM CKDI(8) or 500 nM CKDI(7) (3 plates each, total 12 plates). […]
An average expression level was determined for each probeset at each time-point and treatment condition by computing the geomean expression level across replicate tumors. […] The p-value was determined by a two-tailed t-test assuming unequal variances (Satterwaithe's approximation). […]
This is shown in FIG. 2, where A375 cells that are sensitive to CDKI were treated with CDKI(7) and the reduction of gene expression was determined at 2, 8 and 16 hours of treatment.

MEPCE = experiment: Dog toxicology study, TaqMan mRNA in white blood cells after CDKI(7): MEPCE; assay type: in vivo
Experimental: (§1) As part of a dog toxicology study, CDKI(7) was administered to dogs. White blood cells were harvested and MEPCE, MYC and MCL1 gene expression was assessed as PD markers. mRNA levels of each of these PD markers were measured by TaqMan® at various time points after CDKI(7) treatment.
(§2) The study had three groups of three dogs each. Dogs in Group 1 (#101, #102, and #103) were treated with CDKI(7) at 0.5 mg/kg, dogs in Group 2 (#104, #105, and #106) were treated at 1 mg/kg CDKI(7) and dogs in Group 3 (#107, #108, and #109) were treated at 2 mg/kg CDKI(7). Samples were collected before treatment (0 hour), 3 hours, 7 hours and 24 hours after treatment for a total of 12 samples per group. Blood samples were received frozen in QIAGEN RNA protect® Animal Blood tubes (Cat. # 76554 QIAGEN-Valencia, Calif., USA). RNA samples were extracted using the QIAGEN RNeasy® Protect Animal Blood kit (Cat. # 73224). RNA samples were quantified using the RNA Quant-iT RNA® assay from Invitrogen (Cat. # Q32852 Invitrogen—Grand Island, N.Y., USA) and read on an Invitrogen Qubit fluorometer® (Cat. # Q32857). First strand cDNA synthesis was performed on 500 ng of RNA in a reaction volume of 20 μl using a High Capacity cDNA Reverse Transcription Kit® from Applied Biosystems (Cat. # 4368814 Applied Biosystems, Carlsbad, Calif., USA). The cDNA samples were then diluted to obtain a 10 ng cDNA input for the TaqMan® reaction. TaqMan® reactions were run in triplicates using a TaqMan® Gene Expression Master Mix from Applied Biosystems (Cat. # 4369016) on an ABI 7500® machine. The 18S rRNA level was used as an endogenous control for variations in cDNA input. The relative quantification method was used to analyze the data; this method uses one sample as a calibrator sample and express mRNA levels relative to that sample. The results were expressed as RQ values (Relative Quantification) with RQ Min and RQ Max values determining a 95% confidence interval for the real RQ value. The samples were grouped according to the dose and each group was treated as a separate experiment with one of the pre-dose samples used as a calibrator sample. The logarithm of the RQ values are plotted so that increases or decreases from the initial value can be more easily represented; on a logarithmic scale: a 10-fold increase or 10-fold decrease in RQ value are represented as +1 and −1 respectively.
The mRNA levels were determined by TaqMan® using the relative quantification method. The calibrator samples are dog #101 at 0 hour timepoint for the 0.5 mg/kg dose of CDKI(7), dog #104 at 0 hour timepoint for the 1 mg/kg dose and dog #107 at 0 hour timepoint for the CDKI(7) 2 mg/kg dose. The logarithm (base 10) of the RQ values is plotted with the error bars representing the 95% confidence interval. […] The amplitude and the duration of the down regulation are dose-dependent; at 0.5 mg/kg CDKI(7) the maximum down regulation is 3.2-fold at 3 hours, at 1 mg/kg CDKI(7) it is 5.2-fold at 7 hours and at 2 mg/kg it is 14-fold at 7 hours.

MYC = experiment: Dog toxicology study, TaqMan mRNA in white blood cells after CDKI(7): MYC; assay type: in vivo
Experimental: as §1, §2
The MYC transcription factor is a known oncogene and previous Examples have shown that its mRNA is short-lived and sensitive to CDK9 inhibition (see FIG. 2). The MYC mRNA levels were determined by TaqMan® using the relative quantification method. The calibrator samples are dog #101 at 0 hour timepoint for the 0.5 mg/kg dose of CDKI(7), dog #104 at 0 hour timepoint for the 1 mg/kg CDKI(7) dose and dog #107 at 0 hour timepoint for the 2 mg/kg CDKI(7) dose. The logarithm (base 10) of the RQ values is plotted with the error bars representing the 95% confidence interval.

## O=C(Nc1cc(-c2cccc(NCC3CCOCC3)n2)c(Cl)cn1)[C@@H]1CCCNC1 [CDKI(7)]
[1]; microarray, 2, 8 and 16 hours of treatment
  expression of the PD markers MEPCE, MCL, MYC, HEXIM, LARP7 and WHSC2: reduced
[1]; microarray
  time point of greatest amount of reduction of MEPCE expression: 8 h
MEPCE; 0.5 mg/kg, at 3 hours
  maximum down regulation of MEPCE mRNA: 3.2 fold
MEPCE; 1 mg/kg, at 7 hours
  maximum down regulation of MEPCE mRNA: 5.2 fold
MEPCE; 2 mg/kg, one of the dogs (#109)
  MEPCE mRNA levels at 24 hours: some degree of down regulation
MEPCE; 2 mg/kg, at 7 hours
  maximum down regulation of MEPCE mRNA: 14 fold
MEPCE; 0.5 and 1 mg/kg
  MEPCE mRNA levels at 24 hours: back to pre-treatment levels
MEPCE; all three doses (0.5, 1, 2 mg/kg), FIG. 6
  MEPCE mRNA regulation: clear down regulation
MYC; 0.5 mg/kg
  MYC mRNA regulation: no significant down regulation
MYC; 1 mg/kg, 3 or 7 hour time points
  increase of MYC mRNA: 2 fold
MYC; 2 mg/kg, FIG. 7
  MYC mRNA regulation: consistent down regulation
MYC; 2 mg/kg, at 3 hours, all three dogs
  maximum down regulation of MYC mRNA: 3.8 fold
MYC; 2 mg/kg, at 7 hours
  dogs showing MYC down regulation: 2 out of three
MYC; all doses, 24 hours
  MYC mRNA levels by 24 hours: trended back to pre-treatment levels
